Experimental data as given in ChEMBL document CHEMBL4041509, “Structure-activity relationship study of novel 2-aminobenzofuran derivatives as P-glycoprotein inhibitors” (Eur J Med Chem, 2017).
The source made the active and inactive calls. The calls are words filed in the database; no cut-off is given here.

Tests used:
[1] = target: T1, ATP-dependent translocase ABCB1 (Homo sapiens, UniProt P08183); test: Inhibition of ABCB1 (unknown origin) expressed in Flp-In-293 cells assessed as increase in calcein-AM uptake at 5 uM preincubated for 30 mins followed by calcein-AM addition measured after 30 mins by fluorescence spectrometric method relative to control; type: cell-based; settings: 0.5 h
[2] = target: T1, ATP-dependent translocase ABCB1; test: Inhibition of ABCB1 (unknown origin) expressed in human Flp-In-293 cells assessed as potentiation of doxorubicin-induced cytotoxicity by SRB assay; type: cell-based
[3] = species on record: Homo sapiens; test: Inhibition of P-gp in human HeLaS3 cells assessed as potentiation of vincristine-induced cytotoxicity by SRB assay; type: cell-based
[4] = target: T1, ATP-dependent translocase ABCB1; test: Inhibition of ABCB1 (unknown origin) expressed in human Flp-In-293 cells assessed as potentiation of paclitaxel-induced cytotoxicity at 1 uM by SRB assay relative to control; type: cell-based
[5] = species on record: Homo sapiens; test: Inhibition of P-gp in human HeLaS3 cells assessed as potentiation of vincristine-induced cytotoxicity at 1 uM by SRB assay relative to control; type: cell-based
[6] = tested on: HEK293; test: Effect on ABCB1 mRNA expression in human Flp-In-293 cells at 5 uM after 72 hrs by qRT-PCR method; type: functional, cell-based
[7] = tested on: HEK293; test: Potentiation of doxorubicin-induced cytotoxicity against human Flp-In-293 cells at 2.5 uM by SRB assay relative to control; type: functional
[8] = species on record: Homo sapiens; test: Inhibition of P-gp in human KBVIN cells assessed as potentiation of paclitaxel-induced cytotoxicity at 1 uM by SRB assay relative to control; type: cell-based
[9] = target: T1, ATP-dependent translocase ABCB1; test: Inhibition of ABCB1 (unknown origin) expressed in human Flp-In-293 cells assessed as potentiation of paclitaxel-induced cytotoxicity at 2.5 uM by SRB assay relative to control; type: cell-based
[10] = tested on: HEK293; test: Potentiation of paclitaxel-induced cytotoxicity against human Flp-In-293 cells at 1 uM by SRB assay relative to control; type: functional
[11] = target: T1, ATP-dependent translocase ABCB1; test: Inhibition of ABCB1 (unknown origin) expressed in human Flp-In-293 cells assessed as potentiation of doxorubicin-induced cytotoxicity at 2.5 uM by SRB assay relative to control; type: cell-based
[12] = tested on: HEK293; test: Cytotoxicity against human Flp-In-293 cells assessed as reduction in cell viability by SRB assay; type: cell-based
[13] = species on record: Homo sapiens; test: Inhibition of P-gp in human HeLaS3 cells assessed as potentiation of vincristine-induced cytotoxicity at 2.5 uM by SRB assay relative to control; type: cell-based
[14] = species on record: Homo sapiens; test: Inhibition of P-gp in human KBVIN cells assessed as potentiation of doxorubicin-induced cytotoxicity by SRB assay; type: cell-based
[15] = tested on: HEK293; test: Potentiation of paclitaxel-induced cytotoxicity against human Flp-In-293 cells at 2.5 uM by SRB assay relative to control; type: functional
[16] = target: T1, ATP-dependent translocase ABCB1; test: Inhibition of ABCB1 (unknown origin) expressed in human Flp-In-293 cells assessed as potentiation of paclitaxel-induced cytotoxicity by SRB assay; type: cell-based
[17] = tested on: HEK293; test: Potentiation of vincristine-induced cytotoxicity against human Flp-In-293 cells at 1 uM by SRB assay relative to control; type: functional
[18] = species on record: Homo sapiens; test: Inhibition of P-gp in human HeLaS3 cells assessed as potentiation of paclitaxel-induced cytotoxicity at 1 uM by SRB assay relative to control; type: cell-based
[19] = target: T1, ATP-dependent translocase ABCB1; test: Inhibition of ABCB1 (unknown origin) expressed in human Flp-In-293 cells assessed as potentiation of doxorubicin-induced cytotoxicity at 1 uM by SRB assay relative to control; type: cell-based
[20] = tested on: HeLa S3; test: Cytotoxicity against human HeLaS3 assessed as reduction in cell viability by SRB assay; type: cell-based
[21] = target: T1, ATP-dependent translocase ABCB1; test: Potency index, ratio of compound effect to verapamil effect for inhibition of ABCB1 (unknown origin) expressed in Flp-In-293 cells assessed as increase in calcein-AM uptake at 5 uM preincubated for 30 mins followed by calcein-AM addition measured after 30 mins by fluorescence spectrometric method; type: cell-based; settings: 0.5 h
[22] = tested on: HEK293; test: Potentiation of vincristine-induced cytotoxicity against human Flp-In-293 cells at 2.5 uM by SRB assay relative to control; type: functional
[23] = target: T1, ATP-dependent translocase ABCB1; test: Inhibition of ABCB1 (unknown origin) expressed in Flp-In-293 cells assessed as increase in calcein-AM uptake at 10 uM preincubated for 30 mins followed by calcein-AM addition measured after 30 mins by fluorescence spectrometric method relative to control; type: cell-based; settings: 0.5 h
[24] = species on record: Homo sapiens; test: Inhibition of P-gp in human KBVIN cells assessed as potentiation of vincristine-induced cytotoxicity at 1 uM by SRB assay relative to control; type: cell-based
[25] = species on record: Homo sapiens; test: Inhibition of P-gp in human HeLaS3 cells assessed as potentiation of doxorubicin-induced cytotoxicity at 1 uM by SRB assay relative to control; type: cell-based
[26] = species on record: Homo sapiens; test: Inhibition of P-gp in human HeLaS3 cells assessed as potentiation of doxorubicin-induced cytotoxicity by SRB assay; type: cell-based
[27] = species on record: Homo sapiens; test: Inhibition of P-gp in human KBVIN cells assessed as potentiation of doxorubicin-induced cytotoxicity at 2.5 uM by SRB assay relative to control; type: cell-based
[28] = species on record: Homo sapiens; test: Inhibition of P-gp in human KBVIN cells assessed as potentiation of paclitaxel-induced cytotoxicity by SRB assay; type: cell-based
[29] = tested on: HEK293; test: Cytotoxicity against human Flp-In-293 cells expressing MDR1 assessed as reduction in cell viability by SRB assay; type: ADME, cell-based
[30] = tested on: HEK293; test: Effect on ABCB1 mRNA expression in human Flp-In-293 cells expressing ABCB1 at 5 uM after 72 hrs by qRT-PCR method; type: functional, cell-based
[31] = species on record: Homo sapiens; test: Inhibition of P-gp in human KBVIN cells assessed as potentiation of paclitaxel-induced cytotoxicity at 2.5 uM by SRB assay relative to control; type: cell-based
[32] = species on record: Homo sapiens; test: Inhibition of P-gp in human KBVIN cells assessed as potentiation of vincristine-induced cytotoxicity at 2.5 uM by SRB assay relative to control; type: cell-based
[33] = target: T1, ATP-dependent translocase ABCB1; test: Inhibition of ABCB1 (unknown origin) expressed in human Flp-In-293 cells assessed as potentiation of vincristine-induced cytotoxicity at 2.5 uM by SRB assay relative to control; type: cell-based
[34] = species on record: Homo sapiens; test: Inhibition of P-gp in human HeLaS3 cells assessed as potentiation of paclitaxel-induced cytotoxicity by SRB assay; type: cell-based
[35] = species on record: Homo sapiens; test: Inhibition of P-gp in human HeLaS3 cells assessed as potentiation of doxorubicin-induced cytotoxicity at 2.5 uM by SRB assay relative to control; type: cell-based
[36] = species on record: Homo sapiens; test: Inhibition of P-gp in human KBVIN cells assessed as potentiation of doxorubicin-induced cytotoxicity at 1 uM by SRB assay relative to control; type: cell-based
[37] = species on record: Homo sapiens; test: Inhibition of P-gp in human HeLaS3 cells assessed as potentiation of paclitaxel-induced cytotoxicity at 2.5 uM by SRB assay relative to control; type: cell-based
[38] = Cytotoxicity against human KBVIN assessed as reduction in cell viability by SRB assay; type: cell-based
[39] = species on record: Homo sapiens; test: Inhibition of P-gp in human KBVIN cells assessed as potentiation of vincristine-induced cytotoxicity by SRB assay; type: cell-based
[40] = target: T1, ATP-dependent translocase ABCB1; test: Inhibition of ABCB1 (unknown origin) expressed in human Flp-In-293 cells assessed as potentiation of vincristine-induced cytotoxicity at 1 uM by SRB assay relative to control; type: cell-based
[41] = tested on: HEK293; test: Potentiation of doxorubicin-induced cytotoxicity against human Flp-In-293 cells at 1 uM by SRB assay relative to control; type: functional
[42] = target: T1, ATP-dependent translocase ABCB1; test: Inhibition of ABCB1 (unknown origin) expressed in human Flp-In-293 cells assessed as potentiation of vincristine-induced cytotoxicity by SRB assay; type: cell-based

T1 sequence (P08183 whole entry): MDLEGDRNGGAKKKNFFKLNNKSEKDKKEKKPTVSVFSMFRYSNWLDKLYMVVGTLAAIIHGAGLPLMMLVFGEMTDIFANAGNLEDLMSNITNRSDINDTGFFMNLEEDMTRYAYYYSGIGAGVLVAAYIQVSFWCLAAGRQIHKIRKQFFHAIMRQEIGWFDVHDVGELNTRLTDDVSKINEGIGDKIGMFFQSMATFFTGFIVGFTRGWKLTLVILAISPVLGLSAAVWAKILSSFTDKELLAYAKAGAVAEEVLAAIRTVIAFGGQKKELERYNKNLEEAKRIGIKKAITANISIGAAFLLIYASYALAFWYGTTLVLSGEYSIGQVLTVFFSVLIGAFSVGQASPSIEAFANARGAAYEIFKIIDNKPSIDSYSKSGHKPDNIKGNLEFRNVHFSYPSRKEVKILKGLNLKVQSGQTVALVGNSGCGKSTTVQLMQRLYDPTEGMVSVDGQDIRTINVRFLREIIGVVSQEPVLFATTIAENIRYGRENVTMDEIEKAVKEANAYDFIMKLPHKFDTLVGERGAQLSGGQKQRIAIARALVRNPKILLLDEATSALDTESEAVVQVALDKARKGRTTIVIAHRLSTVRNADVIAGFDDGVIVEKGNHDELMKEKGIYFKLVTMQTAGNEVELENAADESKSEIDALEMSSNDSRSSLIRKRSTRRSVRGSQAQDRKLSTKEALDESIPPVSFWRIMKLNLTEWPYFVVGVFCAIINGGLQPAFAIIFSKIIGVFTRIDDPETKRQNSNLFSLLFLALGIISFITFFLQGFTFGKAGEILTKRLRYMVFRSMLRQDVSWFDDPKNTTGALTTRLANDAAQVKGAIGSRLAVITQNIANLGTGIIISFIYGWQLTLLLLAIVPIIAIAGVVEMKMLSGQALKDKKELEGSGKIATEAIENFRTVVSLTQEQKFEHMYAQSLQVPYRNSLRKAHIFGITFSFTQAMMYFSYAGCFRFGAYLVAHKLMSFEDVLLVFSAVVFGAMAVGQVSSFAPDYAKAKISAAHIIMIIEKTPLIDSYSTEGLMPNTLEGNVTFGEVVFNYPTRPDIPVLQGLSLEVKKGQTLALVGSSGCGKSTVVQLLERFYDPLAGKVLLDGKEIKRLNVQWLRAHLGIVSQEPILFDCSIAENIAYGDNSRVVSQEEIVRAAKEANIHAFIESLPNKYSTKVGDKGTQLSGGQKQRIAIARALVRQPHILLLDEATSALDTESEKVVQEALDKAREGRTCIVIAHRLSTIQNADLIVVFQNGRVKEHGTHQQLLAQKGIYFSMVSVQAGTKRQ

Compound: CCN(CC)CCOc1cc(-c2ccc(OC)c(OC)c2)cc2oc(N)c(-c3cccs3)c12
- fold change (FC) [1]: 11.12
- inhibition (INH) [2]: Dose-dependent effect
- inhibition [3]: Dose-dependent effect
- fold change (FC) [4]: 2.49
- fold change (FC) [5]: 1.23
- Activity [6]: inactive
- fold change (FC) [7]: 1.09
- fold change (FC) [8]: 5.11
- fold change (FC) [9]: 13.68
- fold change (FC) [10]: 1.35
- fold change (FC) [11]: 26.43
- IC50 [12]: 34.9 µM
- fold change (FC) [13]: 1.21
- inhibition [14]: Dose-dependent effect
- fold change (FC) [15]: 1.47
- inhibition (INH) [16]: Dose-dependent effect
- fold change (FC) [17]: 7.01
- fold change (FC) [18]: 5.49
- fold change (FC) [19]: 3.17
- IC50 [20]: 21.5 µM
- Ratio [21]: 3.6
- fold change (FC) [22]: 8.57
- fold change (FC) [23]: 11.34
- fold change (FC) [24]: 240
- fold change (FC) [25]: 0.8
- inhibition [26]: Dose-dependent effect
- fold change (FC) [27]: 5.16
- inhibition [28]: Dose-dependent effect
- IC50 [29]: 31.2 µM
- Activity [30]: inactive
- fold change (FC) [31]: 38.7
- fold change (FC) [32]: 246
- fold change (FC) [33]: 17.95
- inhibition [34]: Dose-dependent effect
- fold change (FC) [35]: 0.93
- fold change (FC) [36]: 1.39
- fold change (FC) [37]: 3.85
- IC50 [38]: 18.5 µM
- inhibition [39]: Dose-dependent effect
- fold change (FC) [40]: 3.37
- fold change (FC) [41]: 1.03
- inhibition (INH) [42]: Dose-dependent effect

Compound: COc1ccc(-c2cc(OCc3cccc(OC)c3)c3c(-c4cccs4)c(N)oc3c2)cc1
- fold change (FC) [1]: 0.78
- fold change (FC) [23]: 0.71

Compound: COc1ccc(-c2cc(OCc3ncc(C)c(OC)c3C)c3c(-c4cccs4)c(N)oc3c2)cc1
- fold change (FC) [1]: 7.97
- fold change (FC) [23]: 8.38

Compound: COc1ccc(-c2cc(OCc3cccc(Cl)c3)c3c(-c4cccs4)c(N)oc3c2)cc1
- fold change (FC) [1]: 0.6
- fold change (FC) [23]: 0.56

Compound: COc1ccc(CCN(C)CCCC(C#N)(c2ccc(OC)c(OC)c2)C(C)C)cc1OC (stereo unspecified)
- fold change (FC) [5]: 1.27
- fold change (FC) [7]: 0.8
- fold change (FC) [8]: 5.13
- fold change (FC) [10]: 1.49
- fold change (FC) [13]: 1.59
- fold change (FC) [15]: 1.37
- fold change (FC) [17]: 1.82
- fold change (FC) [18]: 3.91
- IC50 [20]: > 50 µM
- fold change (FC) [22]: 9.54
- fold change (FC) [24]: 24
- fold change (FC) [25]: 1.33
- fold change (FC) [27]: 6.69
- fold change (FC) [31]: 22.9
- fold change (FC) [32]: 46.1
- fold change (FC) [35]: 2.82
- fold change (FC) [36]: 1.61
- fold change (FC) [41]: 1.04
